Data on one compound can be found in patent US8895738B2, “Mesoionic pyrido [1, 2-A] pyrimidine pesticides” (E I du Pont de Nemours and Company, priority 2010, dated 2014).

Common to all, as to type: in vivo
In assay [1] the test system is corn planthopper (Peregrinus maidis). The assay can be described thus: Test D: control of corn planthopper on maize plant, contact and/or systemic. The conditions noted are these: 144 h, assessed after 6 days, read-out: control efficacy: mortality. On the procedure:
For evaluating control of corn planthopper (Peregrinus maidis) through contact and/or systemic means, the test unit consisted of a small open container with a 3-4-day-old maize plant (spike) inside. White sand was added to the top of the soil prior to application. Test compounds were formulated and sprayed at 250, 50, 10 and/or 2 ppm, and replicated three times as described for Test A. After spraying, the test units were allowed to dry for 1 h before they were post-infested with ˜15-20 nymphs (18 to 21 day old) by sprinkling them onto the sand with a salt shaker. A black, screened cap was placed on the top of each test unit, and the test units were held for 6 days in a growth chamber at 22-24° C. and 50-70% relative humidity. Each test unit was then visually assessed for insect mortality.

Assay [2] concerns rice brown planthopper (Nilaparvata lugens). The assay can be described thus: Test H: control of rice brown planthopper on rice plant. The note with it: 120 h, assessed after 5 days, read-out: control efficacy: mortality. On the procedure: For evaluating control of rice brown planthopper (Nilaparvata lugens) through contact and/or systemic means, the test unit consisted of a plastic pot containing a 13-cm-tall rice plant covered with steel wire mesh (50 mesh) supported by a wire frame. A small amount of sand was added to form a good seal between the bottom of the wire mesh, the soil surface and the top edge of the plastic pot.
Test compounds were formulated and sprayed at 10, 2 and/or 0.4 ppm, and the tests were replicated three times in a manner similar to the one described for Test A. After spraying, the test units were allowed to dry for 2 h before they were post-infested with 10 brown planthoppers (3rd instar nymphs, 7-9 days post-hatch). After 5 days, each test unit was visually assessed for insect mortality.

Assay [3] concerns Rice plants (indica cultivar ‘IR-64’). The assay can be described thus: Test O: harvest yield of rice crop outdoors, Bargarh. The note with it: 12.5, 25 and 50 g a.i./ha (method: 6.25, 12.5, 25 or 50), with indoxacarb and chlorantraniliprole, controls 1370 kg/ha. On the procedure: (§1) To evaluate the effect of application of a compound of the invention on the vigor of rice crops grown under outdoor conditions, Tests 1 through 0 were conducted. “a.i.” refers to the amount of active ingredient applied.
Rice plants (indica cultivar ‘IR-64’) were transplanted into flooded 5 m×5 m test plots of clay loam soil the Bargarh district, Orissa, India, at the end of the winter season, and grown using local agronomic practices. After 79 days, aqueous mixtures containing 30 g a.i./ha of indoxacarb in form of STEWARD® Insecticide, 20 g a.i./ha of chlorantraniliprole, and 6.25, 12.5, 25 or 50 g a.i./ha of Compound 3 were applied to the foliage of the rice plants at in a spray volume of 500 L/ha using a backpack sprayer. Plots of control rice plants were sprayed with an aqueous mixture containing 30 g a.i./ha of indoxacarb in form of STEWARD® Insecticide and 20 g a.i./ha of chlorantraniliprole (i.e. no Compound 3). Each treatment and control was replicated three times, and the plots were arranged in a randomized complete block design. At the time of application of Compound 3, the pest level of rice brown planthopper (Nilaparvata lugens) was high, i.e. much above the level considered economically significant.
Harvest yields from the crops treated with 12.5, 25 and 50 g a.i./ha of Compound 3 were 2470, 3430, 3470 and 4600 kg/ha, respectively, compared to 1370 kg/ha from the untreated controls.

The subject of assay [4] is potato leafhopper (Empoasca fabae). The assay can be described thus: Test E: control of potato leafhopper on Soleil bean plant, contact and/or systemic. The conditions noted are these: 144 h, assessed after 6 days, read-out: control efficacy: mortality. On the procedure: For evaluating control of potato leafhopper (Empoasca fabae) through contact and/or systemic means, the test unit consisted of a small open container with a 5-6-day-old Soleil bean plant (primary leaves emerged) inside. White sand was added to the top of the soil and one of the primary leaves was excised prior to application.
Test compounds were formulated and sprayed at 250, 50, 10 and/or 2 ppm, and the tests were replicated three times as described for Test A. After spraying, the test units were allowed to dry for 1 h before they were post-infested with 5 potato leafhoppers (18-21-day-old adults). A black, screened cap was placed on the top of each test unit, and the test units were held for 6 days in a growth chamber at 24° C. and 70% relative humidity. Each test unit was then visually assessed for insect mortality.

In assay [5] the test system is Rice plants (indica cultivar ‘MTU1010’). The assay can be described thus: Test I: vigor of rice crop outdoors, foliar application, West Godavri. The note with it: 20 days after application, Nilaparvata lugens level high. On the procedure: as §1
(§2) Rice plants (indica cultivar ‘MTU1010’) were transplanted into flooded 5 m×3 m test plots of clay loam soil in the delta region of the West Godavri district, Andhra Pradesh, India, during the rainy season, and grown using local agronomic practices. After 47 days, aqueous mixtures of Compound 3 were applied to the foliage of the rice plants at 12.5, 25 or 50 g a.i./ha in a spray volume of 387 L/ha using a backpack sprayer. Plots of unsprayed rice plants were used as controls. Each treatment and control was replicated three times, and the plots were arranged in a randomized complete block design. At the time of application of Compound 3, the pest level of rice brown planthopper (Nilaparvata lugens) was high, i.e. much above the level considered economically significant.
The crop vigor of the rice plants in each plot was visually rated based on general external appearance (e.g., plant height) 20 days after application on a 0 to 200% scale, wherein the plants in untreated control plots were considered to represent 100%, and the results for the three replicates for each treatment were averaged. More than 100% means the plants in a treated plot were more vigorous than those in the untreated control plot, while less than 100% means the plants in the treated pot were less vigorous.

For assay [6] the test system is unchanged. The assay can be described thus: Test J: vigor of rice crop outdoors, two foliar applications, West Godavri. The note with it: applied twice, 48 days after first application, Nilaparvata lugens level high. On the procedure:
as §1
as §2, with “52” for “47”, “significant. 20 days after the first treatment, the foliar applications of aqueous mixtures of Compound 3 were repeated at the same application rates in a spray volume of 467 L/ha.” for “significant.”

Where a name gives a salt, the structure may show the parent alone.

With `O=c1c(-c2cccc(C(F)(F)F)c2)c([O-])[n+](Cc2cncnc2)c2ccccn12` [Compound 3, 2-hydroxy-4-oxo-1-(5-pyrimidinylmethyl)-3-[3-(trifluoromethyl)phenyl]-4H-pyrido[1,2-a]pyrimidinium inner salt], the mortality at 2 ppm in assay [1] (sprayed at 2 ppm) and in assay [2] (sprayed at 2 ppm) was not below 80% throughout. Also, the mortality at 10 ppm in assay [1] (sprayed at 10 ppm), in assay [2] (sprayed at 10 ppm) and in assay [4] (sprayed at 10 ppm) was not below 80% in each case. In addition, the mortality at 50 ppm in assay [1] (sprayed at 50 ppm) and in assay [4] (sprayed at 50 ppm) was not below 80% each time. Also, the mortality at 250 ppm in assay [1] (sprayed at 250 ppm) and in assay [4] (sprayed at 250 ppm) was not below 80% in each case. The harvest yield in assay [3] (1st of four values) is recorded as 2470 kg/ha; in assay [3] (2nd of four values), 3430 kg/ha; in assay [3] (3rd of four values) it was 3470 kg/ha; in assay [3] (4th of four values), 4600 kg/ha. For the same compound, the “crop vigor (visual rating, 0 to 200% scale, untreated = 100%)” value in assay [5] (12.5 g a.i./ha foliar) worked out at 140%; in assay [5] (25 g a.i./ha foliar), 143%; in assay [5] (50 g a.i./ha foliar), 143%; in assay [6] (12.5 g a.i./ha foliar), 148%; in assay [6] (25 g a.i./ha foliar), 148%; in assay [6] (50 g a.i./ha foliar), 148%.
